Results: patent US20120132797A1, “MEANS AND METHODS FOR DIAGNOSING THYROID DISORDERS” (BASF SE, priority 2009, published 2012)

Test system: Wistar (Crl:WI(Han)) rats
Assay: Mass spectrometry-based plasma metabolite profiling of rats treated with known inducers of thyroid function impairment
Format: in vivo, rat
Conditions: ratio of group medians vs controls
In short: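 Rats aged 10-11 weeks, 5/sex/dose vs 10/sex controls, dosed at low and high levels; retro-orbital plasma taken under isoflurane on days 7, 14 and 28 after 16-20 h fast. Polar and non-polar fractions profiled by GC-MS (derivatised) and LC-MS/MS (MRM plus full scan), normalised to pool samples; Welch t-test by sex and day gives p-values and median ratios.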

[1] = female rats, fh7 (study day 7), Table 3
[2] = female rats, fh14 (study day 14), Table 3
[3] = female rats, fh28 (study day 28), Table 3
[4] = male rats, mh7 (study day 7), Table 4
[5] = male rats, mh14 (study day 14), Table 4
[6] = male rats, mh28 (study day 28), Table 4

CCC(CC)Nc1c([N+](=O)[O-])cc(C)c(C)c1[N+](=O)[O-] [Pendimethalin]
Arachidonic acid (C20:cis[58,11,14]4) [1]: 2.07
Behenic acid (C22:0) [1]: 2.05
Cholesterol [1]: 2.09
Cysteine [1]: 0.52
Docosahexaenoic acid (C22:cis[4,7,10,13,16,19]6) [1]: 1.85
Dodecanol [1]: 1.24
Eicosanoic acid (C20:0) [1]: 1.52
Glycerol phosphate [1]: 1.91
Heptadecanoic acid (C17:0) [1]: 1.35
Linoleic acid (C18:cis[9,12]2) [1]: 1.38
Nervonic acid C24:(cis[15]1) [1]: 3.51
Palmitic acid (C16:0) [1]: 1.49
Sphingomyelin (d18:1, C16:0) [1]: 2.01
Stearic acid (C18:0) [1]: 1.86
Threonic acid [1]: 1.85
dihomo-gamma-Linolenic acid (C20:cis[8,11,14]3) [1]: 1.77
erythro-Sphingosine [1]: 3.26
gamma-Linolenic acid (C18:cis[6,9,12]3) [1]: 1.61
myo-Inositol-2-phosphate [1]: 2.82
threo-Sphingosine [1]: 2.95
Arachidonic acid (C20:cis[58,11,14]4) [2]: 2.24
Behenic acid (C22:0) [2]: 1.89
Cholesterol [2]: 2.17
Cysteine [2]: 0.56
Docosahexaenoic acid (C22:cis[4,7,10,13,16,19]6) [2]: 1.82
Dodecanol [2]: 1.31
Eicosanoic acid (C20:0) [2]: 1.82
Glycerol phosphate [2]: 1.93
Heptadecanoic acid (C17:0) [2]: 1.56
Linoleic acid (C18:cis[9,12]2) [2]: 1.63
Nervonic acid C24:(cis[15]1) [2]: 2.62
Palmitic acid (C16:0) [2]: 1.81
Sphingomyelin (d18:1, C16:0) [2]: 1.64
Stearic acid (C18:0) [2]: 1.97
Threonic acid [2]: 1.79
dihomo-gamma-Linolenic acid (C20:cis[8,11,14]3) [2]: 3.05
erythro-Sphingosine [2]: 2.60
gamma-Linolenic acid (C18:cis[6,9,12]3) [2]: 2.29
myo-Inositol-2-phosphate [2]: 2.74
threo-Sphingosine [2]: 2.67
Arachidonic acid (C20:cis[58,11,14]4) [3]: 2.31
Behenic acid (C22:0) [3]: 1.94
Cholesterol [3]: 2.44
Cysteine [3]: 0.95
Docosahexaenoic acid (C22:cis[4,7,10,13,16,19]6) [3]: 1.85
Dodecanol [3]: 1.31
Eicosanoic acid (C20:0) [3]: 1.61
Glycerol phosphate [3]: 2.06
Heptadecanoic acid (C17:0) [3]: 1.63
Linoleic acid (C18:cis[9,12]2) [3]: 1.36
Nervonic acid C24:(cis[15]1) [3]: 2.54
Palmitic acid (C16:0) [3]: 1.67
Sphingomyelin (d18:1, C16:0) [3]: 1.58
Stearic acid (C18:0) [3]: 2.12
Threonic acid [3]: 2.05
dihomo-gamma-Linolenic acid (C20:cis[8,11,14]3) [3]: 2.43
erythro-Sphingosine [3]: 2.81
gamma-Linolenic acid (C18:cis[6,9,12]3) [3]: 2.57
myo-Inositol-2-phosphate [3]: 2.66
threo-Sphingosine [3]: 2.49
Behenic acid (C22:0) [4]: 1.94
Cholesterol [4]: 1.67
Citrate [4]: 0.86
Cytosine [4]: 0.79
Galactose, lipid fraction [4]: 1.81
Glycerol phosphate [4]: 2.06
Glycine [4]: 1.11
Lignoceric acid (C24:0) [4]: 2.32
Mannose [4]: 1.31
Nervonic acid C24:(cis[15]1) [4]: 2.90
Phospha-tidylcholine (C18:0, 18:2) [4]: 1.26
Sphingomyelin (d18:1, C16:0) [4]: 2.10
Stearic acid (C18:0) [4]: 1.64
Threonic acid [4]: 1.39
dihomo-gamma-Linolenic acis (C20:cis[8,11,14]3) [4]: 2.92
erythro-Sphingosine [4]: 2.78
myo-Inositol-2-phosphate [4]: 3.25
threo-Sphingosine [4]: 2.96
Behenic acid (C22:0) [5]: 1.90
Cholesterol [5]: 2.03
Citrate [5]: 0.83
Cytosine [5]: 0.92
Galactose, lipid fraction [5]: 2.03
Glycerol phosphate [5]: 2.38
Glycine [5]: 1.15
Lignoceric acid (C24:0) [5]: 2.93
Mannose [5]: 1.39
Nervonic acid C24:(cis[15]1) [5]: 2.99
Phospha-tidylcholine (C18:0, 18:2) [5]: 1.25
Sphingomyelin (d18:1, C16:0) [5]: 1.97
Stearic acid (C18:0) [5]: 2.28
Threonic acid [5]: 1.47
dihomo-gamma-Linolenic acis (C20:cis[8,11,14]3) [5]: 3.53
erythro-Sphingosine [5]: 3.33
myo-Inositol-2-phosphate [5]: 3.57
threo-Sphingosine [5]: 3.52
Behenic acid (C22:0) [6]: 1.79
Cholesterol [6]: 2.29
Citrate [6]: 0.87
Cytosine [6]: 0.81
Galactose, lipid fraction [6]: 2.23
Glycerol phosphate [6]: 2.34
Glycine [6]: 1.32
Lignoceric acid (C24:0) [6]: 2.42
Mannose [6]: 1.40
Nervonic acid C24:(cis[15]1) [6]: 3.07
Phospha-tidylcholine (C18:0, 18:2) [6]: 1.32
Sphingomyelin (d18:1, C16:0) [6]: 2.03
Stearic acid (C18:0) [6]: 2.12
Threonic acid [6]: 1.85
dihomo-gamma-Linolenic acis (C20:cis[8,11,14]3) [6]: 2.76
erythro-Sphingosine [6]: 2.69
myo-Inositol-2-phosphate [6]: 2.79
threo-Sphingosine [6]: 2.73
